Data as given in ChEMBL document CHEMBL3045161, “Evaluation of fungicides and biocontrol agents against grey blight disease of tea in the field” (2008).
Active and inactive are the calls of the source. The calls are words filed in the database; no cut-off is given here.

Legend:
[1] = tested on: Pseudopestalotiopsis theae; assay: Fungicidal activity against Pestalotiopsis theae infested tea plant in nursery assessed as reduction in plant casuality at 5 % sprayed on topsoil measured after 90 days; type: functional, organism-based
[2] = tested on: Pseudopestalotiopsis theae; assay: Fungicidal activity against Pestalotiopsis theae infested tea plant in nursery assessed as reduction in plant casuality at 0.05 % sprayed on topsoil measured after 90 days (reference value: 58 %); type: functional; parameters: scale not given: the % may be the effect or the level left
[3] = tested on: Pseudopestalotiopsis theae; assay: Fungicidal activity against grey blight disease-causing Pestalotiopsis theae infested tea plantation assessed as green leaf yield which made tea at 0.05 % applied as foliar spray (reference value: 2884 kg/ha ); type: functional
[4] = tested on: Pseudopestalotiopsis theae; assay: Fungicidal activity against grey blight disease-causing Pestalotiopsis theae infested tea plantation assessed as disease incidence at 0.05 % applied as foliar spray (reference value: 39.2 %); type: functional
[5] = tested on: Pseudopestalotiopsis theae; assay: Fungicidal activity against grey blight disease-causing Pestalotiopsis theae infested tea plantation assessed as green leaf yield which made tea compound applied on shears during hravesting (reference value: 3044 kg/ha); type: functional
[6] = tested on: Pseudopestalotiopsis theae; assay: Fungicidal activity against grey blight disease-causing Pestalotiopsis theae infested tea plantation assessed as disease incidence compound applied on shears during hravesting (reference value: 47 %); type: functional
[7] = tested on: Pseudopestalotiopsis theae; assay: Fungicidal activity against Pestalotiopsis theae infested tea plant in nursery assessed as reduction in plant casuality at 3 % sprayed on topsoil measured after 90 days; type: functional, organism-based

SMILES	Activity [1]	Activity [2]	Crop_yield [3]	Activity [4]	Crop_yield [5]	Activity [6]	Activity [7]
COC(=O)Nc1nc2ccccc2[nH]1 [CARBENDAZIM]	Active	5%	3845 kg/ha	6.6%	–	–	–
COC(=O)NC(=S)Nc1ccccc1NC(=S)NC(=O)OC [THIOPHANATE METHYL]	–	3%	3886 kg/ha	5.6%	3457 kg/ha	17.5%	Active
